We go through 1 compound from paper PMC12691742, “Anti-Cancer Outcome of Glucocorticoid Receptor Transrepression by Synephrine Derivatives in Hematological Malignancies” (International Journal of Molecular Sciences, 2025).

In data set [1] the test system is FKBP51, GILZ, DDIT4 mRNA expression in K562 and Granta cells. Briefly: Q-PCR of GR transactivation marker genes. The data set is classed as cell-based. The following applies: 4 h (FKBP51, GILZ) or 24 h (DDIT4); Dex 10 µM, 10S-E2 0.1 µM; vs control. An excerpt:
Q-PCR results were confirmed by Western blot analysis of the level of GR phosphorylated by Ser211, known as a crucial protein modification for GR TA realization because of its binding to short cysteine-rich fragments of the coactivator CREB-binding protein [41].
Figure 3 Effects of synephrine derivatives on GR transactivation in Granta lymphoma and K562 leukemia cells. (A) Q-PCR analysis of FKBP51, GILZ, and DDIT4 mRNA expression in K562 and Granta cells. […] The Q-PCR results were normalized to the expression of the housekeeping gene RPL27 and are presented as fold changes compared to the control. The mean ± SD was calculated for three individual samples/condition (n = 3). Statistically significant differences compared to the control: * p < 0.05, ** p < 0.01. (B) The levels of the nuclear fraction of phospho-GR (Ser211) were determined using Western blot analysis (n = 3; characteristic images are presented in the figure). Histone H3 was used as a loading control.
(§1) Total RNA isolation from cell cultures and murine bones, reverse transcription, and Q-PCR were performed as described in [36]. Primers were designed using NCBI Primer-BLAST https://www.ncbi.nlm.nih.gov/tools/primer-blast/, accessed on 25 August 2025 (Supplementary Table S1). Results were normalized to the expression of the housekeeping RPL27 и Rpl27 genes. The experiments were performed in triplicate.

Data set [2] deals with IL1-α and IL6 mRNA expression in K562 and Granta cells. The experiment in a line: Q-PCR of GR transrepression marker genes. The class given is cell-based. As for the experimental part: Figure 4 Effects of synephrine derivatives on GR transrepression in Granta lymphoma and K562 leukemia cells. (A) K562 and Granta cells stably infected with the lentiviruses bearing the NF-kB luciferase reporter. Cells were incubated for 5 h with the solvent (control), TPA (5 ng/mL), 4S-C2 (10 µM), 8S-E3 (10 µM), 10S-E2 (1 µM), or 13S-G2 (1 µM). Luciferase activity was determined as described in the Materials and Methods section. (B) IL1-α and IL6 mRNA expression in K562 and Granta cells. Q-PCR results were normalized to the expression of the housekeeping gene RPL27 and are presented as the fold change compared to the control. The mean ± SD was calculated for three individual samples/condition (n = 3). Statistically significant differences compared to the control: * p < 0.05, ** p < 0.01.
as §1

A further data set relates to Granta cells. Briefly: Cell cycle analysis by PI flow cytometry in Granta cells. The class given is cell-based. The note with it: 24 h, 10S-E2 6.25 µM. As for the experimental part: Figure 5 Pro-apoptotic and anti-cancer effects of synephrine derivatives in vitro and in vivo. (A) Effect of 4S-C2, 8S-E3, 10S-E2, and 13S-G2 on cell cycle progression in K562 and Granta cells after 24 h of incubation. The cells were fixed with ethanol, stained with propidium iodide, and analyzed using flow cytometry. Statistically significant difference compared to control: *—p < 0.05, **—p < 0.01 (n = 3). (B) In vivo anti-cancer activity was evaluated using the transplantable P388 murine lymphoma model. […] Tumor nodule size was measured twice a week using digital calipers. Statistically significant differences compared to the control: * p < 0.05, ** p < 0.01.
The distribution of cells by cell cycle phases was evaluated using propidium iodide (PI) staining, as described in [19]. […] After incubation, the cells were resuspended in 70% ethanol and fixed for 2h at 4 °C. Cells were then washed twice with cold PBS, pH 7.4, and stained with 500 µL of cold propidium iodide (PI) solution (50 µg/mL PI, 1% Triton X-100, and 100 µg/mL RNase A in PBS). The cell cycle distribution of cells in samples was analyzed using an FACSCalibur Flow Cytometer (“BD Biosciences”, San Jose, CA, USA). The experiments were performed in triplicate.
A general note: Flow cytometry measures light scatter and fluorescence of single cells or particles in a stream.

A further data set has as its system BALB/c female mice. Briefly: Glucocorticoid-induced osteoporosis model: bone and skin morphometry, body weight. The note with it: Dex 20 mg/kg. The data set is classed as in vivo. An excerpt:
(A) H&E bone staining and quantification of cortical bone thickness. (B) Q-PCR analysis of Rankl, Mmp9, Tsc2, Trap, and Bglap mRNA expression in bone tissue. […] (C) H&E skin staining and quantification of dermal adipose thickness (50 images per treatment group of 10 animals). Statistically significant differences compared to the control: * p < 0.05, ** p < 0.01.
The protocol for the experiment was approved by the local N.N. Blokhin National Medical Research Center Ethics Committee and corresponded to the guidelines for the welfare and use of animals in cancer research adopted by The United Kingdom Coordinating Committee on Cancer Prevention Research. […] Body weight was recorded twice a week for toxicity control.
Bone and skin samples from the GIOP experiment were fixed in formaldehyde and embedded in paraffin, and sections were stained with hematoxylin and eosin. After formaldehyde fixation, the bone samples were decalcified in decalcification buffer (0.5 M EDTA, 0.7 mM NaOH, pH7.0) for 14 days, washed twice with PBS, and further processed according to the standard histology protocol. The dermal adipose and bone thickness were quantified in sections stained with hematoxylin and eosin. At least five individual fields per slide of each sample/treatment (at least 50 images/treatment group) were analyzed using Axioplan2 microscope software (“Carl Zeiss”, Jena, Germany). The dermal adipose or bone thickness in treated animals is presented as a percentage of the control animals.

The mark [3] stands for this setting: i.p. every 24 h for 5 weeks, 10S-E2 10 mg/kg.

“Also recorded” adds a separate entry of the source.

Take `CCCCCCNCC(O)c1ccc(OCc2ccccc2)cc1` (stereo not drawn) [10S-E2, 1-[4-(benzyloxy)phenyl]-2-(hexylamino)ethanol]: the “expression of TA marker genes FKBP51, GILZ, DDIT4” value in data set [1] is “did not increase the expression”. The “expression of GR TR marker genes IL1-α and IL6” value in data set [2] is reported as “downregulation”. Moreover, the “number of cells in the G1 phase” value with Granta cells is given as “decrease in the number of cells in the G1 phase”. Besides, the “animal body weight vs control” value in the data set with BALB/c female mice (GIOP study, 10S-E2 10 mg/kg i.p. every 24 h for 5 weeks) is reported as “no statisticall y si gnificant differences; also recorded: similar”. Also, in the data set on BALB/c female mice (setting [3]), the “loss of cortical bone thickness” value was “did not cause any loss” and the “reduction of dermal adipose tissue / skin atrophy” value is “preserved the skin architecture”.
